Measurements as given in US20180162845A1, “ENHANCER OF ZESTE HOMOLOG 2 INHIBITORS” (GLAXOSMITHKLINE INTELLECTUAL PROPERTY (NO.2) LIMITED, priority 2015, published 2018).
pIC50: −log10 of the molar value.

molecular target: T1, EZH2 within the PRC2 complex (Homo sapiens, UniProt Q15910); assay: EZH2 methyltransferase scintillation proximity assay (SPA); assay type: biochemical; settings: Human PRC2 5 member complex (FLAG-EZH2, EED, SUZ12, RbAp48, AEBP2), biotinylated histone H3K27 peptide, 3H-SAM, 60 min room temperature; ≤10 nM approaches limit of detection
T1 construct: FLAG; made in house; host or cells: Sf9 cells
T1 sequence (Q15910 whole entry): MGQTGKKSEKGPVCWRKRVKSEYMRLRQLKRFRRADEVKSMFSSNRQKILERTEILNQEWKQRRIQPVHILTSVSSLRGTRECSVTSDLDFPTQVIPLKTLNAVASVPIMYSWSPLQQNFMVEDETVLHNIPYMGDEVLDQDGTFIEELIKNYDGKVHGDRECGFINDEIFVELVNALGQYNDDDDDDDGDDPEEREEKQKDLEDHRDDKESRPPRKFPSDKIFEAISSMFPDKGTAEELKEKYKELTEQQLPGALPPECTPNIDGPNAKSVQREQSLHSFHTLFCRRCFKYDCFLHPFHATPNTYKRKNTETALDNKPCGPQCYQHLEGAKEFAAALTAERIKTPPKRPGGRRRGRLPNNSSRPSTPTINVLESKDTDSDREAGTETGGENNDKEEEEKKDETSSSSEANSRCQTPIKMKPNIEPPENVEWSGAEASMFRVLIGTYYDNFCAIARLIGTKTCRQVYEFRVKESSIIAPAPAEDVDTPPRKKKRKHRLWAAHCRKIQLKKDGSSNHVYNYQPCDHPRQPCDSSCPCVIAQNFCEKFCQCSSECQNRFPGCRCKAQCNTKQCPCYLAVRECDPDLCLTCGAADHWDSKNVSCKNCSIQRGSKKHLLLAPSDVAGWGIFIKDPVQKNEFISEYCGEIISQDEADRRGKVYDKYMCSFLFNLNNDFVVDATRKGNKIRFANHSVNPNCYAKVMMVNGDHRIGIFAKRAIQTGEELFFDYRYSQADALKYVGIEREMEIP
T1 sequence (O75530 whole entry partner): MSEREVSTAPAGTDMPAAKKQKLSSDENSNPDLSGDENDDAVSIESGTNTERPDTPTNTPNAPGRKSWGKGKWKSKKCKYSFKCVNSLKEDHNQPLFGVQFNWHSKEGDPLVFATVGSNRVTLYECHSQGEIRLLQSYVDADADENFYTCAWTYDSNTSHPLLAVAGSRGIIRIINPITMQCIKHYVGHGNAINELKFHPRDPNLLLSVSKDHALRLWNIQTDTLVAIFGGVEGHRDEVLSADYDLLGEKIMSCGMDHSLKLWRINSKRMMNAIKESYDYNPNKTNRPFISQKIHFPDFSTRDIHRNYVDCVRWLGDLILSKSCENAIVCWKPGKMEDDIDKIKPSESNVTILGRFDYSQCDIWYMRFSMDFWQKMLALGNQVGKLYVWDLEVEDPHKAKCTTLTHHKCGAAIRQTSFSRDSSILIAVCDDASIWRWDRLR
T1 sequence (Q15022 whole entry partner): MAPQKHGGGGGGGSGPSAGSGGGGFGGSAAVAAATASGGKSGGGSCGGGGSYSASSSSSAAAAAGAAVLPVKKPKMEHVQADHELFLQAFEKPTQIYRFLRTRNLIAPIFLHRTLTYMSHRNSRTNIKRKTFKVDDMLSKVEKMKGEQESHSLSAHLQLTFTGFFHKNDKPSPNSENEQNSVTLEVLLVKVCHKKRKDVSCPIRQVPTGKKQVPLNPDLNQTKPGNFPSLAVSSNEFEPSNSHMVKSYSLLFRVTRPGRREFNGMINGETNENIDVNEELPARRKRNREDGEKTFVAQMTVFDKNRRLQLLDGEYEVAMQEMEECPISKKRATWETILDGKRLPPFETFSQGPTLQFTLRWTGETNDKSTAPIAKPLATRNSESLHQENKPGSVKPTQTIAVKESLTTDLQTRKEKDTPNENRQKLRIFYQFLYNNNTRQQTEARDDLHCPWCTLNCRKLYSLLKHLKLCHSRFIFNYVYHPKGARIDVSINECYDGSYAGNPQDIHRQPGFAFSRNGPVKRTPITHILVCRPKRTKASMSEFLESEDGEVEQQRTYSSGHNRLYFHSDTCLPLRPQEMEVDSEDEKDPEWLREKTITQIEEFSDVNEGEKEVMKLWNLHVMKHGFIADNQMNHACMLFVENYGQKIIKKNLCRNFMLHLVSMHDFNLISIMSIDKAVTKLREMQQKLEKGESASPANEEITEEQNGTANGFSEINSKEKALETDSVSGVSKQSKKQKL
T1 sequence (Q09028 whole entry partner): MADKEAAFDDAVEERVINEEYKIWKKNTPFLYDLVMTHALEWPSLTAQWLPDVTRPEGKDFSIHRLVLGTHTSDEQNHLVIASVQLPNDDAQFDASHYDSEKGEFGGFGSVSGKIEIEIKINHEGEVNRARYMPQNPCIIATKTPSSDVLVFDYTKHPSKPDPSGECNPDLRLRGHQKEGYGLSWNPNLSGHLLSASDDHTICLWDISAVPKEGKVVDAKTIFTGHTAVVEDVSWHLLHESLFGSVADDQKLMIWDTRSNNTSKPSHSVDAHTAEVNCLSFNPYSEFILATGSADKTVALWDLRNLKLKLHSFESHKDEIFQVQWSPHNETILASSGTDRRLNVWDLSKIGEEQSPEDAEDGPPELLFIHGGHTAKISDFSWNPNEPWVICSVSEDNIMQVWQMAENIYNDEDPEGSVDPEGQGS
T1 sequence (Q6ZN18 whole entry partner): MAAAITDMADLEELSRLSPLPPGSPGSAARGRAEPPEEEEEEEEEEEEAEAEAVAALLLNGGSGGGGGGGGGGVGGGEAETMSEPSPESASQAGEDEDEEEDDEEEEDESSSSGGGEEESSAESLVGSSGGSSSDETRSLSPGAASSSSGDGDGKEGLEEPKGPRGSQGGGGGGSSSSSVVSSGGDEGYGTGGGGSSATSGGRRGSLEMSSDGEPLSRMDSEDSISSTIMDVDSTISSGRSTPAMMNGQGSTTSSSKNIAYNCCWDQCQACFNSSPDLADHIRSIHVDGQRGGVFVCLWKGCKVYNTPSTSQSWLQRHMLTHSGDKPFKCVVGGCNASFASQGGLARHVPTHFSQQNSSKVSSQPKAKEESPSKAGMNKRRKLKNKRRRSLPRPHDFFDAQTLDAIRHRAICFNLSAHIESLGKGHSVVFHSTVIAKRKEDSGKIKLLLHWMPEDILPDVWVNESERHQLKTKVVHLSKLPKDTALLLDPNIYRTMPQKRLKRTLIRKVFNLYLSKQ
Procedure: Compounds contained herein were evaluated for their ability to inhibit the methyltransferase activity of EZH2 within the PRC2 complex. Human PRC2 complex was prepared by co-expressing each of the 5 member proteins (FLAG-EZH2, EED, SUZ12, RbAp48, AEBP2) in Sf9 cells followed by co-purification. Enzyme activity was measured in a scintillation proximity assay (SPA) where a tritiated methyl group is transferred from 3H-SAM to a lysine residue on a biotinylated, unmethylated peptide substrate derived from histone H3. The peptides were captured on streptavidin-coated SPA beads and the resulting signal was read on a ViewLux plate reader.
• 1. Prepare 10 mM stock of compounds from solid in 100% DMSO. • 2. Set up an 11-point serial dilution (1:4 dilution, top concentration 10 mM) in 100% DMSO for each test compound in a 384 well plate leaving columns 6 and 18 for DMSO controls. • 3. Dispense 10 nL of compound from the dilution plate into reaction plates (Corning, 384-well polystyrene NBS, Cat# 3673).
• 1. 1× Base Buffer, 50 mM Tris-HCl, pH 8, 2 mM MgCl2: Per 1 L of base buffer, combine 1 M Tris-HCl, pH 8 (50 mL), 1 M MgCl2 (2 mL), and distilled water (948 mL). • 2. 1× Assay Buffer: Per 10 mL of 1× Assay Buffer, combine 1× Base Buffer (9.96 mL), 1 M DTT (40 uL), and 10% Tween-20 (1 uL) to provide a final concentration of 50 mM Tris-HCl, pH 8, 2 mM MgCl2, 4 mM DTT, 0.001% Tween-20. • 3. 2× Enzyme Solution: Per 10 mL of 2× Enzyme Solution, combine 1× Assay Buffer (9.99 mL) and 3.24 uM EZH2 5 member complex (6.17 uL) to provide a final enzyme concentration of 1 nM. • 4. SPA Bead Solution: Per 1 mL of SPA Bead Solution, combine Streptavidin coated SPA beads (PerkinElmer, Cat #RPNQ0261, 40 mg) and 1× Assay Buffer (1 mL) to provide a working concentration of 40 mg/mL. • 5. 2× Substrate Solution: Per 10 mL of 2× Substrate Solution, combine 40 mg/mL SPA Bead Solution (375 uL), 1 mM biotinylated histone H3K27 peptide (200 uL), 12.5 uM 3H-SAM (240 uL; 1 mCi/mL), 1 mM cold SAM (57 uL), and 1× Assay Buffer (9.13 mL) to provide a final concentration of 0.75 mg/mL SPA Bead Solution, 10 uM biotinylated histone H3K27 peptide, 0.15 uM 3H-SAM (˜12 uCi/mL 3H-SAM), and 2.85 uM cold SAM. • 6. 2.67× Quench Solution: Per 10 mL of 2.67× Quench Solution, combine 1 Assay Buffer (9.73 mL) and 10 mM cold SAM (267 uL) to provide a final concentration of 100 uM cold SAM.
• 1. Stamp 10 nL/well of 1000× Compound to test wells (as noted above). • 2. Stamp 10 nL/well of 100% DMSO to columns 6 & 18 (high and low controls, respectively).
• 1. Dispense 5 uL/well of 1× Assay Buffer to column 18 (low control reactions). • 2. Dispense 5 uL/well of 2× Substrate Solution to columns 1-24 (note: substrate solution should be mixed to ensure homogeneous bead suspension before dispensing into matrix reservoir). • 3. Dispense 5 uL/well of 2× Enzyme Solution to columns 1-17, 19-24. • 4. Incubate the reaction for 60 min at room temperature.
• 1. Dispense 6 uL/well of the 2.67× Quench Solution to columns 1-24. • 2. Seal assay plates and spin for ˜1 min at 500 rpm. • 3. Dark adapt plates in the ViewLux instrument for 15-60 min. Read plates • 1. Read the assay plates on the Viewlux Plate Reader utilizing the 613 nm emission filter or clear filter (300 s exposure). • Reagent addition can be done manually or with automated liquid handler.
Percent inhibition was calculated relative to the DMSO control for each compound concentration and the resulting values were fit using standard IC50 fitting parameters within the ABASE data fitting software package.

| SMILES | pIC50 |
| --- | --- |
| CC[C@@H](c1sc2c(c1C)C(=O)N(Cc1c(C)cc(C)[nH]c1=O)CC2)C1CCN(Cc2ccc(Cl)cn2)CC1 [Example 4, (R)-2-(1-(1-((5-Chloropyridin-2-yl)methyl)piperidin-4-yl)propyl)-5-((4,6-dimethyl-2-oxo-1,2-dihydropyridin-3-yl)methyl)-3-methyl-6,7-dihydrothieno[3,2-c]pyridin-4(5H)-one] | ≥ 8.00 |
| COc1cccc(CN2CCC([C@@H](C)c3sc4c(c3C)C(=O)N(Cc3c(C)cc(C)[nH]c3=O)CCC4)CC2)n1 [Example 12, (R)-5-((4,6-Dimethyl-2-oxo-1,2-dihydropyridin-3-yl)methyl)-2-(1-(1-((6-methoxypyridin-2-yl)methyl)piperidin-4-yl)ethyl)-3-methyl-5,6,7,8-tetrahydro-4H-thieno[3,2-c]azepin-4-one] | ≥ 8.00 |
| Cc1cc(C)c(CN2CCCc3sc([C@H](C)C4CCN(CC5CCCCC5)CC4)c(C)c3C2=O)c(=O)[nH]1 [Example 13, (R)-2-(1-(1-(cyclohexylmethyl)piperidin-4-yl)ethyl)-5-((4,6-dimethyl-2-oxo-1,2-dihydropyridin-3-yl)methyl)-3-methyl-5,6,7,8-tetrahydro-4H-thieno[3,2-c]azepin-4-one] | ≥ 8.00 |
| COc1cc(CN2CCC([C@@H](C)c3sc4c(c3C)C(=O)N(Cc3c(C)cc(C)[nH]c3=O)CC4)CC2)ccn1 [Example 11, (R)-5-((4,6-Dimethyl-2-oxo-1,2-dihydropyridin-3-yl)methyl)-2-(1-(1-((2-methoxypyridin-4-yl)methyl)piperidin-4-yl)ethyl)-3-methyl-6,7-dihydrothieno[3,2-c]pyridin-4(5H)-one] | ≥ 8.00 |
| Cc1cc(C)c(CN2CCCc3sc([C@H](C)C4CCN(Cc5ccccc5)CC4)c(C)c3C2=O)c(=O)[nH]1 [Example 10, (R)-2-(1-(1-Benzylpiperidin-4-yl)ethyl)-5-((4,6-dimethyl-2-oxo-1,2-dihydropyridin-3-yl)methyl)-3-methyl-5,6,7,8-tetrahydro-4H-thieno[3,2-c]azepin-4-one] | ≥ 8.00 |
| Cc1cc(C)c(CN2CCCc3sc([C@H](C)C4CCN(Cc5ccc(Cl)cn5)CC4)c(C)c3C2=O)c(=O)[nH]1 [Example 8] | ≥ 8.00 |

Second part, the molecule after the results:

| pIC50 | SMILES |
| --- | --- |
| ≥ 8.00 | CCC(=C1CCN(Cc2ccnc(OC)c2)CC1)c1scc(C(=O)NCc2c(C)cc(C)[nH]c2=O)c1C [Example 5, N-((4,6-Dimethyl-2-oxo-1,2-dihydropyridin-3-yl)methyl)-5-(1-(1-((2-methoxypyridin-4-yl)methyl)piperidin-4-ylidene)propyl)-4-methylthiophene-3-carboxamide] |
| ≥ 8.00 | CC[C@@H](c1sc2c(c1C)C(=O)N(Cc1c(C)cc(C)[nH]c1=O)CC2)C1CCN(Cc2ccccn2)CC1 [Example 1, (R)-5-((4,6-dimethyl-2-oxo-1,2-dihydropyridin-3-yl)methyl)-3-methyl-2-(1-(1-(pyridin-2-ylmethyl)piperidin-4-yl)propyl)-6,7-dihydrothieno[3,2-c]pyridin-4(5H)-one] |
| ≥ 8.00 | Cc1cccc(CN2CCC([C@@H](C)c3sc4c(c3C)C(=O)N(Cc3c(C)cc(C)[nH]c3=O)CCC4)CC2)n1 [Example 9, (R)-5-((4,6-Dimethyl-2-oxo-1,2-dihydropyridin-3-yl)methyl)-3-methyl-2-(1-(1-((6-methylpyridin-2-yl)methyl)piperidin-4-yl)ethyl)-5,6,7,8-tetrahydro-4H-thieno[3,2-c]azepin-4-one] |
| ≥ 8.00 | Cc1cc(C)c(CN2CCCc3sc([C@H](C)C4CCN(Cc5ccccn5)CC4)c(C)c3C2=O)c(=O)[nH]1 [Example 6, (R)-5-((4,6-Dimethyl-2-oxo-1,2-dihydropyridin-3-yl)methyl)-3-methyl-2-(1-(1-(pyridin-2-ylmethyl)piperidin-4-yl)ethyl)-5,6,7,8-tetrahydro-4H-thieno[3,2-c]azepin-4-one] |
| ≥ 8.00 | CC[C@@H](c1sc2c(c1C)C(=O)N(Cc1c(C)cc(C)[nH]c1=O)CC2)C1CCN(Cc2ccccc2)CC1 [Example 2, (R)-2-(1-(1-Benzylpiperidin-4-yl)propyl)-5-((4,6-dimethyl-2-oxo-1,2-dihydropyridin-3-yl)methyl)-3-methyl-6,7-dihydrothieno[3,2-c]pyridin-4(5H)-one] |
| ≥ 8.00 | COc1cc(CN2CCC([C@@H](C)c3sc4c(c3C)C(=O)N(Cc3c(C)cc(C)[nH]c3=O)CCC4)CC2)ccn1 [Example 7, (R)-5-((4,6-Dimethyl-2-oxo-1,2-dihydropyridin-3-yl)methyl)-2-(1-(1-((2-methoxypyridin-4-yl)methyl)piperidin-4-yl)ethyl)-3-methyl-5,6,7,8-tetrahydro-4H-thieno[3,2-c]azepin-4-one] |
| ≥ 8.00 | CC[C@@H](c1sc2c(c1C)C(=O)N(Cc1c(C)cc(C)[nH]c1=O)CC2)C1CCN(Cc2ccncc2)CC1 [Example 3, (R)-5-((4,6-Dimethyl-2-oxo-1,2-dihydropyridin-3-yl)methyl)-3-methyl-2-(1-(1-(pyridin-4-ylmethyl)piperidin-4-yl)propyl)-6,7-dihydrothieno[3,2-c]pyridin-4(5H)-one] |
| ≥ 8.00 | Cc1cc(C)c(CN2CCCc3sc([C@H](C)C4CCN(CC5(C)CCCCC5)CC4)c(C)c3C2=O)c(=O)[nH]1 [Example 14, (R)-5-((4,6-Dimethyl-2-oxo-1,2-dihydropyridin-3-yl)methyl)-3-methyl-2-(1-(1-((1-methylcyclohexyl)methyl)piperidin-4-yl)ethyl)-5,6,7,8-tetrahydro-4H-thieno[3,2-c]azepin-4-one] |
